SMILES strings stand for the structures. Like-named read-outs stand apart in the source and are kept apart here.

The conditions of data set [1]: cited from earlier work.
For data set [2] the following is noted: 35% aqueous hydrogen peroxide.
Text: (§1) In each of the examples, oxidized and extracted plant working solution was used. […] The quinone working solution was a mixture of butyl and amyl anthraquinones and butyl and amyl tetrahydroanthraquinones dissolved in a mixed organic solvent comprised of alkylated benzenes (Cyclosol®) and an aliphatic alcohol (diisobutylcarbinol) together with inerts and degradation products.
(§2) To test for amine stability to oxidation under plant extraction-stage conditions, a catalytic amount (0.01 grams) of amine was added to 10 grams of oxidized and extracted working solution. This 0.1 weight % mixture was then shaken with an equal volume of 35 weight % aqueous hydrogen peroxide in a stoppered bottle at 60° C. for 24 hours. The loss of amine from the working solution was monitored by means of gas chromatography.
The nature of data set [3]: amine stability to oxidation under plant extraction-stage conditions (35 weight % aqueous hydrogen peroxide, 60° C., 24 hours; gas chromatography). Particulars: 0.1 weight % amine in working solution, shaken with equal volume 35 weight % aqueous hydrogen peroxide.
Text: as §1, §2
A short description of data set [4]: activity in anthrone reoxidation (disappearance of 2-butylanthrone in fortified working solution under oxygen; liquid chromatography). Particulars: 0.1 weight % amine, 60° C.; for % Original Amount Remaining After 24 Hours: 2-Butylanthrone: 2 weight % 2-butylanthrone, control (no amine) 76.
Text: In each of the examples, oxidized and extracted plant working solution was used. […] The hydrogenation catalyst used was a supported noble-metal catalyst (palladium on alumina). The quinone working solution was a mixture of butyl and amyl anthraquinones and butyl and amyl tetrahydroanthraquinones dissolved in a mixed organic solvent comprised of alkylated benzenes (Cyclosol®) and an aliphatic alcohol (diisobutylcarbinol) together with inerts and degradation products.
To test for activity in anthrone reoxidation, a further portion of the oxidized and extracted working solution was fortified with 2 weight % 2-butylanthrone to represent a highly degraded condition. A catalytic amount (0.1 weight %) amine was added to the fortified working solution in a stoppered bottle which was filled with oxygen. The mixture was shaken for 24 hours at 60° C. under oxygen. The reoxidation of the 2-butylanthrone was followed by means of liquid chromatography.
Another data set can be described thus: pKa of the amines. Format: physicochemical. As to conditions: in 50/50 methanol/water; acid titration using glass electrode. The text has this: ^(1) pKa values in water from Patai, S., "The Chemistry of Amino
Groups,", Interscience Publishers, New York, New York (1968), Chapter 4.
^(2) pKa values in 50/50 methanol/water determined by acid
titration using glass electrode.

The nature of data set [5]: pilot plant cyclic anthraquinone process with amine addition. Here is the method:
A pilot plant facility, sized to be approximately 1/1000 that of a commercial unit, was charged with 1.5M lbs. of working solution withdrawn from the commercial unit. The working solution comprised a mixture of butyl and amyl anthraquinones and tetrahydroanthraquinones dissolved in a Cyclosol®/diisobutylcarbinol solvent. Using plant Pd/Al2 O3 slurry catalyst in the hydrogenator, operation of the pilot plant was commenced with a working solution flow of about 1.5 g.p.m. and at about 50° C. The average titer of the reduced working solution leaving the hydrogenator was about 38. "Titer" is an industrial term used as a measure of the depth or degree of reduction of the working solution, that is, the amount of hydroquinone formed expressed as LB. MOLS/10,000 gallons of working solution. Thirty-eight titer represents driving conditions for a commercial facility which is usually operated at 32 titer or less. As operating titer is increased, experience has shown that hydrogen peroxide production is increased but at the expense of increased quinone degradation and quinone use.
Over an initial operating period of two months in the pilot plant without amine addition, the anthrone content of the working solution increased steadily from 0.2 wt. % to 0.7 wt. % and was accompanied by a corresponding decrease in the quinone content of the working solution. Then, 0.05 wt. % of N,N-di-n-butylaniline was added to the pilot plant working solution hold tank. Over the next 36 hours a rapid drop in the anthrone content to about 0.2 wt. % was observed.
Operation of the pilot plant was continued at the 38 titer level for a further four and a half months with a daily production of about 250 lbs. hydrogen peroxide. The N,N-di-n-butylaniline content of the working solution was maintained at about 0.03 wt. % by means of small daily additions. […] Other operating parameters such as yield and product quality were unaffected.

Setting [6] is: in water, from Patai, The Chemistry of Amino Groups (1968), Chapter 4.

Consider `Cc1cccc(N)c1` [Example 2, m-Toluidine], for which, in data set [1] (water), the pKa is 4.7. Besides, the “% Original Amount Remaining After 24 Hours: Amine” value in data set [2] was 7%.

For the compound `c1ccc(Nc2ccccc2)cc1` [Example 3, Diphenylamine, reference compound], in data set [1] (setting [6]), the pKa is recorded as 0.9. The “% Original Amount Remaining After 24 Hours: Amine” value in data set [3] stood at 96%. In addition, the “% Original Amount Remaining After 24 Hours: 2-Butylanthrone” value in data set [4] is reported as 82%.

For `c1ccc(CN(Cc2ccccc2)Cc2ccccc2)cc1` [Example 4, Tribenzylamine, reference compound], in data set [3], the “% Original Amount Remaining After 24 Hours: Amine” value is 83%. The “% Original Amount Remaining After 24 Hours: 2-Butylanthrone” value in data set [4] is on record as 64%.

Take `CCCCN(CCCC)CCCC` [Example 5, Tributylamine, reference compound]: the pKa in data set [1] (setting [6]) was 10.9. Also, the “% Original Amount Remaining After 24 Hours: Amine” value in data set [3] came out at 2%. For the same compound, the “% Original Amount Remaining After 24 Hours: 2-Butylanthrone” value in data set [4] was 0%. In data set [4] (2-butylanthrone reoxidation), the “Reaction was complete in (time)” value is listed as “three”.

In the data set “pKa of the amines”, `CCCCCCN(CCCCCC)c1ccccc1` [Example 6, N,N--Di-n-hexyl-aniline] showed a pKa of 5.0. Moreover, the “% Original Amount Remaining After 24 Hours: Amine” value in data set [3] turned out to be 86%. Further, in data set [4], the “% Original Amount Remaining After 24 Hours: 2-Butylanthrone” value worked out at 36%.

With `CCCCN(CCCC)c1ccccc1` [Example 7, N,N-di-n-butylaniline], the pKa is given as 5.2 in the data set “pKa of the amines” and 6.2 in data set [1] (setting [6]). For the same compound, the “% Original Amount Remaining After 24 Hours: Amine” value in data set [3] was determined as 76%. Further, the “anthrone content of the working solution after amine addition” value in data set [5] (0.05 wt. % amine added, over the next 36 hours, from 0.7 wt. %, about 50° C., titer about 38) is on record as “about 0.2 wt. %”. The hydrogenation activity entry in data set [5] (after addition of 0.05 wt. % amine) was “An improvement in hydrogenation activity was also noted”. In data set [5] (amine maintained at about 0.03 wt. %, four and a half months, 38 titer), the loss of quinones result was “no measurable loss of quinones”. Also, the “% Original Amount Remaining After 24 Hours: 2-Butylanthrone” value in data set [4] is 13%.

In turn, `CCN(CC)c1ccccc1C` [Example 8, N,N--Diethyl-2-methylaniline] had a pKa in “pKa of the amines” of 5.3. In data set [3], the “% Original Amount Remaining After 24 Hours: Amine” value stood at 43%. Further, the “% Original Amount Remaining After 24 Hours: 2-Butylanthrone” value in data set [4] is recorded as 15%.

`CCCCCCCCc1ccc(N(CCCC)CCCC)cc1` [Example 9, N,N--Di-n-butyl-4-octylaniline] had a pKa in the data set “pKa of the amines” of 5.6. Besides, the “% Original Amount Remaining After 24 Hours: Amine” value in data set [3] turned out to be 68%. In data set [4], the “% Original Amount Remaining After 24 Hours: 2-Butylanthrone” value is given as 11%.

`CCCCN(CCCC)c1ccc(C)cc1` [Example 10, N,N--Di-n-butyl-4-methylaniline] had a pKa in “pKa of the amines” of 5.8. Besides, the “% Original Amount Remaining After 24 Hours: Amine” value in data set [3] is 71%. Moreover, the “% Original Amount Remaining After 24 Hours: 2-Butylanthrone” value in data set [4] is 10%.

In the case of `CCN(CC)c1cccc(C)c1` [Example 11, N,N--Diethyl-3-methylaniline], the pKa in “pKa of the amines” was 6.0. Also, the “% Original Amount Remaining After 24 Hours: Amine” value in data set [3] was determined as 55%. Besides, the “% Original Amount Remaining After 24 Hours: 2-Butylanthrone” value in data set [4] is on record as 5%.

For `CCCCN(CCCC)c1ccc(C)c(C)c1` [Example 12, N,N--Di-n-butyl-3,4-dimethylaniline], in “pKa of the amines”, the pKa is 6.2. Further, the “% Original Amount Remaining After 24 Hours: Amine” value in data set [3] turned out to be 61%. Moreover, the “% Original Amount Remaining After 24 Hours: 2-Butylanthrone” value in data set [4] is listed as 8%.

Values taken from patent US4668499A, “Process for manufacturing hydrogen peroxide” (E. I. Du Pont de Nemours and Company, priority 1986, dated 1987).
